Experimental data: article PMC3776562 (Journal of the American Chemical Society, 2013)
Values belong to the molecule of their own block, whether it stands above or below them.

How the values were obtained:
[1] = PUMA peptide oligomerization (CD, size-exclusion chromatography, SDS-PAGE); assay type: physicochemical
Text: (§1) CD scans were taken in an Applied Photophysics Chirascan, using 10 to 2 mm path length cuvettes. Percentage helicity calculated using the mean residue ellipticity at 222 nm.[24]
Figure S3. PUMA peptide undergoes reversible oligomerization to an α-helical structure. (a) The Circular dichroism spectra of the PUMA peptide becomes more α-helical at higher concentrations, consistent with the formation of an α-helical oligomer.
(b) Oligomers are visible on denaturing SDS-PAGE gel of PUMA peptide at ~10-100 µM concentrations. White numbers refer to elution volumes from FPLC trace (c). (c) […]
PUMA oligomers (i), for comparison a trace for a similar size monomeric peptide is […]
-200 Monomeric BH3 peptide
(1 picture or pasted object on this page, not shown here)

[2] = molecular target: T1, Mcl-1 (Mus musculus, UniProt P97287); test: Urea dependence of association rate constant; assay type: binding
T1 construct: with 151 N-terminal residues and 23 C-terminal residues removed; hexahistidine tag with thrombin cleavage site (N, cleaved yes); made in house; host or cells: Escherichia coli C41 (DE3)
Text: Urea is a denaturing cosolvent used in protein folding studies to energetically disfavor structured states. […] However, increasing urea concentrations also makes solutions more viscous. […] Further, the natural log of k+ against concentration of urea is linear, with a gradient of m = 0.55 (±0.02) M^–1 (Figure 3D).
(§2) Association kinetics were monitored by following the change in intrinsic fluorescence on an SX18 or SX20 stopped-flow spectrometer (Applied Photophysics). All PUMA solutions were incubated at 25 °C for 30 min before use to allow for dissociation of oligomers. Because of mixing artifacts, data collected before the first 5 ms were removed before fitting. Proteins were mixed at near equal (1–0.25 μM) concentrations. Association kinetics were analyzed using eq 3([51]) that describes irreversible association of two proteins at initial concentrations [A]0 and [B]0: [drawing 3] 3 where F is fluorescence, F0 the initial fluorescence, ΔF is the fluorescence amplitude of the reaction, [A]0 is the initial concentration of one protein, [B]0 the other, x = [B]0/[A]0, k+ is the association rate constant, and t is time. Where repeat measurements were made, standard errors are shown as error bars. Errors were propagated using standard equations.

[3] = molecular target: T1, Mcl-1; test: Temperature dependence of association rate constant; assay type: binding; conditions: stopped-flow fluorescence
Procedure: as §2

[4] = molecular target: T1, Mcl-1; test: Circular dichroism of 1:1 complex with Mcl-1; assay type: binding; conditions: CD
Text: as §1

[5] = molecular target: T1, Mcl-1; test: Ionic strength dependence of association rate constant (fit to eq 4); assay type: binding
Procedure: Unless otherwise stated, experiments were carried out in 50 mM sodium phosphate, pH 7.0. For the ionic strength dependence of association protein and peptide were exchanged to the low ionic strength 10 mM MOPS, pH 7.0, buffer (I = 0.004 M) and then ionic strength was controlled using [NaCl]. NaOH was titrated to maintain neutral pH upon addition of NaCl.
as §2, with “equations. […]” for “equations.”

[6] = Intrinsic tryptophan fluorescence emission spectra; assay type: physicochemical; conditions: excitation at 280 nm; unbound
Procedure: (§3) Intrinsic tryptophan fluorescence was also used to probe the structural changes in these proteins upon association.
(§4) Figure S4. Fluorescence spectra of Mcl-1 and PUMA peptide show Mcl-1 is folded, PUMA is unfolded and binding occurs. […]
(§5) fluorescence spectrum characteristic of buried tryptophans whereas PUMA (blue) […]
(§6) An increase in fluorescence is seen upon mixing 1 µM: 1 µM of Mcl-1 and PUMA peptide. 1:1 complex (black solid line) […]
(§7) a greater signal than the spectrum predicted for no interaction (dashed line), which is the sum of the PUMA alone (blue) and Mcl-1 alone (magenta) spectra.

[7] = molecular target: T1, Mcl-1; test: Stopped-flow fluorescence association kinetics of PUMA constructs with Mcl-1; assay type: binding; conditions: chemical denaturants, lowering total protein concentration, altering temperature
Procedure: The synthetic genes for truncated mouse Mcl-1 (UniProt P97287) with 151 N-terminal residues and 23 C-terminal residues removed (Figure S2C) and GB1-PUMA (Figure S2D) were obtained from Genscript. The genes were inserted into a modified version of the pRSET A vector that encodes an N-terminal hexahistidine tag with a thrombin cleavage site between the tag and the protein. Due to the cleavage of thrombin, a GS is added at the N-termini of Mcl-1. Protein expression was carried out in Escherichia coli C41 (DE3) grown in LB media at 37 °C. […] Identity was confirmed using mass spectrometry, the concentration of GB1-PUMA was determined by the method of Gill von Hippel,[36] and the concentration of Mcl-1 was determined using amino acid analysis.
Mouse PUMA peptide, residues 128–161 (Uniprot Q99ML1) with the M144I mutation used in the NMR structure 2ROC[26], together with N-terminal acetylation and C-terminal amidation, was synthesized by Selleck Chemicals. […] Peptide concentration was determined using amino acid analysis and identity confirmed using mass spectrometry. […]
Association kinetics were monitored by following the change in intrinsic fluorescence on an SX18 or SX20 stopped-flow spectrometer (Applied Photophysics). […] Association kinetics were analyzed using eq 3([51]) that describes irreversible association of two proteins at initial concentrations [A]0 and [B]0: [drawing 3] […]

[8] = molecular target: T1, Mcl-1; test: Viscosity dependence of association rate constant (glucose); assay type: binding; conditions: glucose as viscogen; relative rate constant vs relative viscosity
Procedure: We measured k+ in varying concentrations of the small-molecule viscogen glucose and the observed k+ did indeed match the predicted rate constant (k0η0/η) (Figure 2B) and produce the standard viscosity plot[37] (k0/k+ vs η/η0) with the expected slope for a ‘diffusion-limited’ reaction, ∼1 (Figure 2C).
as §2

[9] = tested on: folded Bcl-2 members; conditions: cited from earlier work
Text: The binding of BH3 regions to folded Bcl-2 family members is, due to their important physiological role and the large number of homologues, one of the most heavily studied coupled folding and binding reactions, particularly with respect to equilibrium binding constants obtained and structures solved.[21],[29] BH3 peptides have potential therapeutic value and have been the focus for the design of peptide-based mimics, including hydrocarbon staples,[42] α/β-peptides,[43] miniature proteins[44] and photoswitchable peptides.[45] To understand the general principles of binding, knowledge of kinetic ...

[10] = molecular target: T1, Mcl-1; test: Fluorescence change on complex formation with Mcl-1; conditions: binding to Mcl-1; intrinsic tryptophan fluorescence
Procedure: as §3, §4, §5, §6, §7

[11] = Circular dichroism, unbound PUMA helicity; assay type: physicochemical; conditions: CD
Procedure: as §1
Figure S9. Changes in helicity of PUMA peptide with solvent and temperature.
Due to the oligomerization of the PUMA peptide circular dichroism (CD) was recorded at the low concentration of 1 µM with a 10 mm pathlength cuvette to maximize signal.
Errors due to buffer subtraction and high absorbances prevent quantitative analysis of these spectra. However, each individual figure was recorded on the same day so qualitative conclusions can be drawn. (a) The helicity of the PUMA peptide is highly temperature dependent, with lower temperatures favoring helical conformations. (b) Increasing concentration of the denaturant urea results in the disfavoring of helical […]
significant change in CD signal.

[12] = molecular target: truncated mouse Mcl-1 (induced myeloid leukemia cell differentiation protein), 151 N-terminal and 23 C-terminal residues removed (mouse) (UniProt P97287); test: stopped-flow fluorescence kinetics; intrinsic fluorescence; protein and peptide mixed at near equal concentrations (1-0.25 uM), also pseudo-first-order conditions; 50 mM sodium phosphate, pH 7.0; fit to irreversible association (eq 3)
[13] = Mcl-1 urea unfolding by intrinsic tryptophan fluorescence; assay type: physicochemical, mouse; conditions: 1 µM Mcl-1, 25 °C, 50 mM PO4 pH 7.0, excitation 280 nm, emission 360 nm
Procedure: Figure S8. Mcl-1 remains folded up to 3.5 M urea. Mcl-1 fraction folded calculated
from the intrinsic tryptophan fluorescence of Mcl-1 (1 µM Mcl-1, 25 °C, 50 mM PO 4
pH 7.0, excitation at 280 nm, 10 nm pathlength, emission at 360 nm, 5nm pathlength).

[14] = molecular target: T2, truncated mouse Mcl-1 (induced myeloid leukemia cell differentiation protein), 151 N-terminal and 23 … (mouse, UniProt P97287 152-308); test: fluorescence kinetics after manual mixing; Mcl-1 and PUMA solutions manually mixed at nanomolar concentrations, fluorescence followed; fit to a model with association and dissociation; conditions: both partners purified
[15] = molecular target: T2, truncated mouse Mcl-1 (induced myeloid …); test: stopped-flow fluorescence kinetics; intrinsic fluorescence; protein and peptide mixed at near equal concentrations (1-0.25 uM), also pseudo-first-order conditions; 50 mM sodium phosphate, pH 7.0; fit to irreversible association (eq 3); conditions: both partners purified
[16] = molecular target: the molecule itself; test: SEC + other: concentration dependent circular dichroism and denaturing SDS-PAGE; PUMA peptide alone at concentrations above 2 uM; reversible oligomerization

- concentration above which reversible oligomerization to highly α-helical structure occurs ([1]; concentration dependent CD, size-exclusion chromatography and denaturing SDS-PAGE): above 2 μM
- concentration at which oligomers are visible on gel ([1]; denaturing SDS-PAGE): 10 to 100 µM
- m, gradient of ln(k+) against urea concentration ([2]; urea 0 upward, stopped-flow): 0.55 (±0.02) M^–1
- rate constant in the absence of long-range electrostatics k+basal ([5]; 10 mM MOPS, pH 7.0 (I = 0.004 M), ionic strength controlled with NaCl, fit to eq 4, a set to 6 Å): 6 (±1) × 10^5 M^–1 s^–1
- kon ([5]; read-out: association rate constant k+ at high ionic strength): 100000 to 1e+06 M⁻¹ s⁻¹
- fluorescence emission maximum [6]: 360 nm
- slope of viscosity plot (k0/k+ vs η/η0) [8]: 1.13 ± 0.02
- change in helicity with temperature ([11]; 1 µM, 10 mm pathlength cuvette, 15–60 °C, qualitative): less helical at higher temperatures
- residual helicity in the unbound state ([11]; mean residue ellipticity at 222 nm, 50 mM PO4, pH 7.0, 25 °C): ~20%
Molecule: Ac-VEEEEWAREIGAQLRRIADDLNAQYERRRQEEQH-NH2 [PUMA peptide]
- effect of urea on k+ ([2]; increasing urea, compared with prediction from viscosity k0η0/η): decreased by significantly more than what would be expected due to viscosity effects alone
- effect of temperature on association [3]: An increase in temperature accelerates association
- helicity on binding Mcl-1 [4]: increased α-helicity relative to the two proteins in isolation
- dissociation of preformed Mcl-1 PUMA complex [7]: No solvent conditions could be found where preformed Mcl-1 PUMA complex could be observed to dissociate without unfolding the structured Mcl-1
- affinity for folded Bcl-2 members relative to other BH3 peptides [9]: greater affinity than most other BH3 peptides
- overall fluorescence change upon complex formation [10]: significant increase in overall fluorescence upon complex formation
- change in intrinsic helicity with ionic strength and urea ([11]; 1 µM, 10 mm pathlength cuvette, urea 0–3 M, I 4–214 mM, qualitative): showed little ionic strength dependence but was reduced in the presence of urea

- kon [12]: 1.29e+07 M⁻¹ s⁻¹
Molecule: GB1-PUMA: 90 aa chain containing a soluble GB1 domain fused to the N-terminus of the 34 aa PUMA peptide (from UniProt Q99ML1 128-161)

B1: Mcl-1: truncated mouse Mcl-1 (UniProt P97287) with 151 N-terminal residues and 23 C-terminal residues removed; GS added at N-terminus (protein)
chain: GSEDDLYRQSLEIISRYLREQATGSKDSKPLGEAGAAGRRALETLRRVGDGVQRNHETAFQGMLRKLDIKNEGDVKSFSRVMVHVFKDGVTNWGRIVTLISFGAFVAKHLKSVNQESFIEPLAETITDVLVRTKRDWLVKQRGWDGFVEFFHVQDLEGG
modifications: left off: His6, N-terminal, cleaved
notes: truncated mouse Mcl-1 (UniProt P97287) with 151 N-terminal residues and 23 C-terminal residues removed; GS added at N-terminus
- fluorescence emission maximum [6]: 330 nm
- urea concentration up to which protein remains folded [13]: 3.5 M

- Kd [14]: 0.1 nM
- koff [14]: 0.0016 s⁻¹
- kon [15]: 1.59e+07 M⁻¹ s⁻¹
B2: Mouse PUMA peptide, residues 128-161, M144I, N-terminal acetylation and C-terminal amidation (peptide, UniProt Q99ML1 128-161, looked up)
peptide: Ac-VEEEEWAREIGAQLRRIADDLNAQYERRRQEEQH-NH2
- binding result [16]: binds
